Experimental data published in patent US11161856B2 (H. Lundbeck A/S, priority 2017, dated 2021).

Tests used:
Format in all cases: biochemical
MAGL = target: T1, MAGL (Homo sapiens, UniProt Q99685); assay: In vitro competitive activity-based protein profiling (FP-Rh or HT-01 probe, gel-based); settings: prefrontal cortex (PFC) proteome, concentration not given (μM)
T1 construct: Proteomes (human prefrontal cortex or cell membrane fractions); from tissue
T1 sequence (Q99685 1-303): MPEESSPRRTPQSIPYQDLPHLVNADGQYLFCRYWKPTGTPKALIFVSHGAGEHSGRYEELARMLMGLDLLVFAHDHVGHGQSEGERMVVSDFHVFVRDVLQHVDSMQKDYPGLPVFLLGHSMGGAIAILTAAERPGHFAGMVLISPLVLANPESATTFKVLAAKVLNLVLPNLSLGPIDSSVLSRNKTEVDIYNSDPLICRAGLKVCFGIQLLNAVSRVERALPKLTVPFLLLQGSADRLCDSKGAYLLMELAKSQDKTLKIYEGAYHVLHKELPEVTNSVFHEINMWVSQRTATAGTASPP
Method: (§1) In Vitro Competitive Activity-Based Protein Profiling.
(§2) Proteomes (human prefrontal cortex or cell membrane fractions) (50 μL, 1.0 mg/mL total protein concentration) were preincubated with varying concentrations of inhibitors at 37° C. After 30 min, FP-Rh or HT-01 (1.0 μL, 50 μM in DMSO) was added and the mixture was incubated for another 30 min at room temperature. Reactions were quenched with SDS loading buffer (15 μL-4×) and run on SDS-PAGE.

MGLL = target: T2, MGLL (Mus musculus, UniProt O35678); assay: In vitro competitive activity-based protein profiling, mouse brain proteome (MGLL); settings: concentration not given (μM)
T2 construct: Brain; from tissue; host or cells: mouse brain proteome
T2 sequence (O35678 1-303): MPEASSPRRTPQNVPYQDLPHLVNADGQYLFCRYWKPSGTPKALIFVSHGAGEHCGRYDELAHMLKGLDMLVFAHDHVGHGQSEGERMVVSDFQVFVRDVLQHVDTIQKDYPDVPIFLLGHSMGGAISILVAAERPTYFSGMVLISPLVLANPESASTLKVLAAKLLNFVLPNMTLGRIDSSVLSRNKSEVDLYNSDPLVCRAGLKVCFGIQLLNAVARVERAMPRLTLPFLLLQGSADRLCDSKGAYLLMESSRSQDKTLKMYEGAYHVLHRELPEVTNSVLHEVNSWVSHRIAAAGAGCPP

ABHD6 = target: T3, ABHD6 (Mus musculus, UniProt Q8R2Y0); assay: In vitro competitive activity-based protein profiling, mouse brain proteome (ABHD6); settings: mouse brain proteome; concentration not given (μM)
T3 construct: Brain; from tissue; host or cells: mouse brain proteome
T3 sequence (Q8R2Y0 1-336): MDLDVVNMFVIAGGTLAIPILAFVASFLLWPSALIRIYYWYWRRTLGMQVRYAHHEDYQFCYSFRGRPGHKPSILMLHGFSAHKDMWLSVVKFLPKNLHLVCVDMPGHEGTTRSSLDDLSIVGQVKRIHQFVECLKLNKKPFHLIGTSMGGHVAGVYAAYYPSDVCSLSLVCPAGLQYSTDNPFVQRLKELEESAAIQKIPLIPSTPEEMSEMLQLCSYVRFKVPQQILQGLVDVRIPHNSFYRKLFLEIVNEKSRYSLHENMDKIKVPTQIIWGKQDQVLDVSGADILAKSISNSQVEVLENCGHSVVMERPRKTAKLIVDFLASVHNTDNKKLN
Method: [The source words this procedure for another target and reports this target under the same test.] as §1, §2

SMILES | % Inh MGLL PFC (Human, μM) (MAGL) | % Inh MGLL Brain (Mouse, μM) (MGLL) | % Inh ABHD6 Brain (Mouse, μM) (ABHD6)
O=C(OC(C(F)(F)F)C(F)(F)F)N1CCC2(CCCN2C(=O)c2ccc(C(F)(F)F)cc2)CC1 [Example 83, 1,1,1,3,3,3-Hexafluoropropan-2-yl 1-(4-(trifluoromethyl)benzoyl)-1,8-diazaspiro[4.5]decane-8-carboxylate] | ### (### is ≥75%) | ### (### is ≥75%) | ### (### is ≥75%)
O=C(O)C1CCN(c2cc(CN3CC4(CCN(C(=O)OC(C(F)(F)F)C(F)(F)F)CC4)C3)cc(C(F)(F)F)c2)CC1 [Example 99, 1-(3-((7-(((1,1,1,3,3,3-Hexafluoropropan-2-yl)oxy)carbonyl)-2,7-diazaspiro[3.5]nonan-2-yl)methyl)-5-(trifluoromethyl)phenyl)piperi-dine-4-carboxylic acid] | ### (### is ≥75%) | ### (### is ≥75%) | ### (### is ≥75%)
O=C(O)C1CN(c2cc(CN3CC4(CCN(C(=O)OC(C(F)(F)F)C(F)(F)F)CC4)C3)cc(C(F)(F)F)c2)CCO1 (stereo not drawn) [Example 100, 4-(3-((7-(((1,1,1,3,3,3-Hexafluoropropan-2-yl)oxy)carbonyl)-2,7-diazaspiro[3,5]nonan-2-yl)methyl)-5-(trifluoromethyl)phenyl)morph-oline-2-carboxylic acid] | ### (### is ≥75%) | ### (### is ≥75%) | ### (### is ≥75%)
O=C(O)C1CCN(c2cc(C(F)(F)F)ccc2CN2CC3(CCN(C(=O)OC(C(F)(F)F)C(F)(F)F)CC3)C2)C1 (stereo not drawn) [Example 101, l-(2-((7-(((1,1,1,3,3,3-Hexafluoropropan-2-yl)oxy)carbonyl)-2,7-diazaspiro[3,5]nonan-2-yl)methyl)-5-(trifluoromethyl)phenyl)pyrroli-dine-3-carboxylic acid] | ### (### is ≥75%) | ### (### is ≥75%) | ### (### is ≥75%)
O=C(O)C1CCN(c2cc(C(F)(F)F)ccc2CN2CC3(CCN(C(=O)OC(C(F)(F)F)C(F)(F)F)CC3)C2)CC1 [Example 102, l-(2-((7-(((U,l,3,3,3-Hexafluoropropan-2-yl)oxy)carbonyl)-2,7-diazaspiro[3.5]nonan-2-yl)methyl)-5-(trifluoromethyl)phenyl)piperi-dine-4-carboxylic acid] | ### (### is ≥75%) | ### (### is ≥75%) | ### (### is ≥75%)
O=C(O)C1COCCN1c1cc(CN2CC3(CCN(C(=O)OC(C(F)(F)F)C(F)(F)F)CC3)C2)cc(C(F)(F)F)c1 (stereo not drawn) [Example 103] | ### (### is ≥75%) | ### (### is ≥75%) | ## (## is between 25 and 75%)
O=C(O)C1CCN(c2cc(CN3CC4(CCN(C(=O)OC(C(F)(F)F)C(F)(F)F)CC4)C3)cc(C(F)(F)F)c2)C1 (stereo not drawn) [Example 104, l-(3-((7-(((1,1,1,3,3,3-Hexailuoropropan-2-yl)oxy)carbonyl)-2,7-diazaspiro[3.5]nonan-2-yl)methyl)-5-(trifluoromethyl)phenyl) pyrrolidine-3-carboxylic acid] | ### (### is ≥75%) | ### (### is ≥75%) | ### (### is ≥75%)
O=C(O)[C@@H]1CCCN(c2cc(CN3CC4(CCN(C(=O)OC(C(F)(F)F)C(F)(F)F)CC4)C3)cc(C(F)(F)F)c2)C1 [Example 105, (R)-1-(3-((7-(((1,1,1,3,3,3-Hexafluoropropan-2-yl)oxy)carbonyl)-2,7-diazaspiro[3,5]nonan-2-yl)methyl)-5-(trifluoromethyl)phenyl) piperidine-3-carboxylic acid] | ### (### is ≥75%) | ### (### is ≥75%) | ### (### is ≥75%)
O=C(O)[C@H]1CCCN(c2cc(CN3CC4(CCN(C(=O)OC(C(F)(F)F)C(F)(F)F)CC4)C3)cc(C(F)(F)F)c2)C1 [Example 106, (S)-1-(3-((7-(((1,1,1,3,3,3-Hexafluoropropan-2-yl)oxy)carbonyl)-2,7-diazaspiro[3,5]nonan-2-yl)methyl)-5-(trifluoromelhyl)phenyl) piperidine-3-carboxylic acid] | ### (### is ≥75%) | ### (### is ≥75%) | ### (### is ≥75%)
O=C(O)[C@@H]1CCCN(c2cc(C(F)(F)F)ccc2CN2CC3(CCN(C(=O)OC(C(F)(F)F)C(F)(F)F)CC3)C2)C1 [Example 107, (R)-1-(2-((7-(((1,1,1,3,3,3-Hexafluoropropan-2-yl)oxy)carbonyl)-2,7-diazaspiro[3,5]nonan-2-yl)methyl)-5-(trifluoromethyl)phenyl) piperidine-3-carboxylic acid] | ### (### is ≥75%) | ### (### is ≥75%) | # (# is ≤25%)
CN(Cc1ccc(C(F)(F)F)cc1N1CCOC(C(=O)O)C1)C1(C)CCN(C(=O)OC(C(F)(F)F)C(F)(F)F)CC1 (stereo not drawn) [Example 108, 4-(2-(((1-(((1,1,1,3,3,3-Hexafluoropropan-2-yl)oxy)carbonyl)-4-methylpiperidin-4-yl)(methyl)amino)methyl)-5-(trifluoromethyl)phenyl) morpholine-2-carboxylic acid] | ### (### is ≥75%) | ### (### is ≥75%) | ## (## is between 25 and 75%)
O=C(OC(C(F)(F)F)C(F)(F)F)N1CCC2(CC1)CCN(C(=O)c1ccc(C(F)(F)F)c(Cl)c1)C2 [Example 109, 1,1,1,3,3,3-Hexafluoropropan-2-yl 2-(3-chloro-4-(trifluoromethyl)benzoyl)-2,8-diazaspiro[4.5]decane-8-carboxylate] | ### (### is ≥75%) | ### (### is ≥75%) | ### (### is ≥75%)
O=C(OC(C(F)(F)F)C(F)(F)F)N1CCC2(CC1)CCN(C(=O)c1cc(Cl)cc(C(F)(F)F)c1)C2 [Example 110, 1,1,1,3,3,3-Hexafluoropropan-2-yl 2-(3-chloro-5-(trifluoromethyl)benzoyl)-2,8-diazaspiro[4.5]decane-8-carboxylate] | ### (### is ≥75%) | ### (### is ≥75%) | ### (### is ≥75%)
O=C(O)[C@H]1CCCN(c2cc(C(F)(F)F)ccc2CN2CC3(CCN(C(=O)OC(C(F)(F)F)C(F)(F)F)CC3)C2)C1 [Example 111, (S)-1-(2-((7-(((1,1,1,3,3,3-hexafluoropropan-2-yl)oxy)carbonyl)-2,7-diazaspiro[3,5]nonan-2-yl)methyl)-5-(trifluoromethyl)phenyl) piperidine-3-carboxylic acid] | ### (### is ≥75%) | ### (### is ≥75%) | ### (### is ≥75%)
CC1(C(=O)O)CCCN(c2cc(C(F)(F)F)ccc2CN2CC3(CCN(C(=O)OC(C(F)(F)F)C(F)(F)F)CC3)C2)C1 (stereo not drawn) [Example 112, l-(2-((7-(((1,1,1,3,3,3-Hexafluoropropan-2-yl)oxy)carbonyl)-2,7-diazaspiro[3.5]nonan-2-yl)methyl)-5-(trifluoromethyl)phenyl)-3-methylpiperidine-3-carboxylic acid] | ### (### is ≥75%) | ### (### is ≥75%) | ## (## is between 25 and 75%)
O=C(O)C1COCCN1c1cc(C(F)(F)F)ccc1CN1CC2(CCN(C(=O)OC(C(F)(F)F)C(F)(F)F)CC2)C1 (stereo not drawn) [Example 113, 4-(2-((7-(((1,1,1,3,3,3-Hexafluoropropan-2-yl)oxy)carbonyl)-2,7-diazaspiro[3.5]nonan-2-yl)methyl)-5-(trifluoromethyl)phenyl)moiph oline-3-carboxylic acid] | # (# is ≤25%) | ## (## is between 25 and 75%) | # (# is ≤25%)
